Laboratory results published in patent US8937167B2 (Washington University, priority 2009, dated 2015).
Read-outs that look alike come from different tables or passages of the source.

Target: FimH (Escherichia coli, UniProt Q1R2J4)
Conditions: for HAI Titer EC>50: Table 21
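Note: hemagglutination inhibition of guinea pig erythrocytes agglutinated by type 1 piliated uropathogenic E. coli via FimH mannose binding, quantified through serial dilutions of compound.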

Row | SMILES | HAI Titer EC>90 | further results
1 | CS(=O)(=O)Nc1ccccc1-c1ccc(OC2OC(CO)C(O)C(O)C2O)cc1 (stereo not shown) [Compound 3ZFH163, N-[2-[4-[3,4,5-trihydroxy-6-(hydroxymethyl)tetrahydropyran-2-yl]oxyphenyl]phenyl]methanesulfonamide] | 12.000 µM | –
2 | CNS(=O)(=O)c1ccccc1-c1ccc(OC2OC(CO)C(O)C(O)C2O)cc1 (stereo not shown) [Compound 3ZFH176, N-methyl-2-[4-[3,4,5-trihydroxy-6-(hydroxymethyl)tetrahydropyran-2-yl]oxyphenyl]benzenesulfonamide] | 4.000 µM | –
3 | CNS(=O)(=O)c1cccc(-c2ccc(OC3OC(CO)C(O)C(O)C3O)cc2)c1 (stereo not shown) [Compound 3ZFH179, N-methyl-3-[4-[3,4,5-trihydroxy-6-(hydroxymethyl)tetrahydropyran-2-yl]oxyphenyl]benzenesulfonamide] | 1.000 µM | –
4 | COc1ccccc1-c1ccc(OC2OC(CO)C(O)C(O)C2O)cc1 (stereo not shown) [Compound 3ZFH188, 2-(hydroxymethyl)-6-[4-(2-methoxyphenyl)phenoxy]tetrahydropyran-3,4,5-triol] | 2.000 µM | –
5 | COc1cccc(-c2ccc(OC3OC(CO)C(O)C(O)C3O)cc2)c1 (stereo not shown) [Compound 3ZFH190, 2-(hydroxymethyl)-6-[4-(3-methoxyphenyl)phenoxy]tetrahydropyran-3,4,5-triol] | 1.500 µM | –
6 | COC(=O)c1cc(-c2ccc(OC3OC(CO)C(O)C(O)C3O)cc2)ccn1 [Compound 3ZFH220, methyl 4-[4-(a-D-mannopyranosyloxy)phenyl]pyridine-2-carboxylate] | 0.500 µM | –
7 | NCCOCCOCCNC(=O)c1cc(-c2ccc(OC3OC(CO)C(O)C(O)C3O)cc2)cc([N+](=O)[O-])c1 (stereo not shown) [Compound 3ZFH245, N-[2-[2-(2-aminoethoxy)ethoxy]ethyl]-3-nitro-5-[4-[3,4,5-trihydroxy-6-(hydroxymethyl)tetrahydropyran-2-yl]oxyphenyl]benzamide] | 0.25 µM | –
8 | O=C(Nc1ccncc1)c1cccc(-c2ccc(OC3OC(CO)C(O)C(O)C3O)cc2)c1 (stereo not shown) [Compound 3ZFH256, N-(4-pyridyl)-3-[4-[3,4,5-trihydroxy-6-(hydroxymethyl)tetrahydropyran-2-yl]oxyphenyl]benzamide] | 0.25 µM | –
9 | CN1CCN(C(=O)c2cccc(-c3ccc(OC4OC(CO)C(O)C(O)C4O)cc3)c2)CC1 (stereo not shown) [Compound 3ZFH261, (4-methylpiperazin-1-yl)-[3-[4-[3,4,5-trihydroxy-6-(hydroxymethyl)tetrahydropyran-2-yl]oxyphenyl]phenyl]methanone] | 4.000 µM | –
10 | O=C(Nc1cccnc1)c1cccc(-c2ccc(OC3OC(CO)C(O)C(O)C3O)cc2)c1 (stereo not shown) [Compound 3ZFH265, N-(3-pyridyl)-3-[4-[3,4,5-trihydroxy-6-(hydroxymethyl)tetrahydropyran-2-yl]oxyphenyl]benzamide] | 0.375 µM | –
11 | CN(C)C(=NCCNC(=O)c1cccc(-c2ccc(OC3OC(CO)C(O)C(O)C3O)cc2)c1)N(C)C (stereo not shown) [Compound 3ZFH270, N-[2-[bis(dimethylamino)methyleneamino]ethyl]-3-[4-[3,4,5-trihydroxy-6-(hydroxymethyl)tetrahydropyran-2-yl]oxyphenyl]benzamide] | 2.000 µM | –
12 | O=C(NCCO)c1cccc(-c2ccc(OC3OC(CO)C(O)C(O)C3O)cc2)c1 (stereo not shown) [Compound 3ZFH276, N-(2-hydroxyethyl)-3-[4-[3,4,5-trihydroxy-6-(hydroxymethyl)tetrahydropyran-2-yl]oxyphenyl]benzamide] | 0.5000 µM | –
13 | NCCNC(=O)c1cccc(-c2ccc(OC3OC(CO)C(O)C(O)C3O)cc2)c1 (stereo not shown) [Compound 3ZFH280, N-(2-aminoethyl)-3-[4-[3,4,5-trihydroxy-6-(hydroxymethyl)tetrahydropyran-2-yl]oxyphenyl]benzamide] | 3.000 µM | –
14 | O=C(c1cccc(-c2ccc(OC3OC(CO)C(O)C(O)C3O)cc2)c1)N1CCNCC1 (stereo not shown) [Compound 3ZFH284, piperazin-1-yl-[3-[4-[3,4,5-trihydroxy-6-(hydroxymethyl)tetrahydropyran-2-yl]oxyphenyl]phenyl]methanone] | 4.0000 µM | –
15 | COC(=O)c1cccc(OC2OC(CO)C(O)C(O)C2O)c1 (stereo not shown) [Compound 3j] | – | fold loss of HA potency (carboxylic acid relative to matched pair methyl ester 3j): 10 fold
16 | N#Cc1ccccc1OC1OC(CO)C(O)C(O)C1O (stereo not shown) [Compound 3m] | – | EC50 (read-out: HA 50% Titer, Table 10, Example 6 numbering): 6 µM
17 | COC(=O)c1cccc(-c2ccc(NC3OC(CO)C(O)C(O)C3O)cc2)c1 (stereo not shown) [Compound 4ZFH44, methyl 3-[4-[[3,4,5-trihydroxy-6-(hydroxymethyl)tetrahydropyran-2-yl]amino]phenyl]benzoate] | 4.000 µM | –
18 | COC(=O)c1cccc(-c2ccc(OC3OC(CO)C(O)C(O)C3O)c(Cl)c2)c1 (stereo not shown) [Compound 4ZFH49, methyl 3-[3-chloro-4-[3,4,5-trihydroxy-6-(hydroxymethyl)tetrahydropyran-2-yl]oxy-phenyl]benzoate] | 0.032 µM | –
19 | COC(=O)c1sc(-c2ccc(OC3OC(CO)C(O)C(O)C3O)cc2)cc1NC(N)=O (stereo not shown) [Compound 4ZFH52-JJ, methyl 5-[4-[3,4,5-trihydroxy-6-(hydroxymethyl)tetrahydropyran-2-yl]oxyphenyl]-3-ureido-thiophene-2-carboxylate] | 0.016 µM | –
20 | COC(=O)c1cccc(-c2ccc(SC3OC(CO)C(O)C(O)C3O)cc2)c1 (stereo not shown) [Compound 4ZFH55, methyl 3-[4-[3,4,5-trihydroxy-6-(hydroxymethyl)tetrahydropyran-2-yl]sulfanylphenyl]benzoate] | 4.000 µM | –
21 | COC(=O)c1cccc(-c2ccc(NC(=O)C3OC(CO)C(O)C(O)C3O)cc2)c1 (stereo not shown) [Compound 4ZFH89, methyl 3-[4-[[3,4,5-trihydroxy-6-(hydroxymethyl)tetrahydropyran-2-carbonyl]amino]phenyl]benzoate] | 16.000 µM | –
22 | OCC1OC(n2cc(-c3ccccc3)nn2)C(O)C(O)C1O (stereo not shown) [Compound 4ZFH105, 2-(hydroxymethyl)-6-(4-phenyltriazol-1-yl)tetrahydropyran-3,4,5-triol] | 32.000 µM | –
23 | O=C(NCC1O[C@@H](CO)[C@@H](O)[C@H](O)[C@H]1O)c1ccc(Br)cc1 (stereo partly drawn) [Compound 4ZFH123, 4-bromo-N-[[(3R,4R,5S,6S)-3,4,5-trihydroxy-6-(hydroxymethyl)tetrahydropyran-2-yl]methyl]benzamide] | 16.000 µM | HAI Titer EC>50 (ZFH/JWJ codes): 16.000 µM; HAI Titer EC>90 (Table 22, ZFH/JWJ codes): 16.000 µM
24 | COC(=O)c1cccc(-c2ccc(C(=O)NCC3O[C@@H](CO)[C@@H](O)[C@H](O)[C@H]3O)cc2)c1 (stereo partly drawn) [Compound 4ZFH131, methyl 3-[4-[[(3R,4R,5S,6S)-3,4,5-trihydroxy-6-(hydroxymethyl)tetrahydropyran-2-yl]methylcarbamoyl]phenyl]benzoate] | 16.000 µM | HAI Titer EC>50 (ZFH/JWJ codes): 16.000 µM; HAI Titer EC>90 (Table 22, ZFH/JWJ codes): 16.000 µM
25 | COC(=O)c1cccc(-c2ccc(OC3O[C@@H](CO)[C@@H](O)[C@H](O)[C@H]3O)c(F)c2)c1 (stereo partly drawn) [Compound 4ZFH220, methyl 3-[3-fluoro-4-[(3R,4S,5S,6S)-3,4,5-trihydroxy-6-(hydroxymethyl)tetrahydropyran-2-yl]oxy-phenyl]benzoate] | 0.750 µM | HAI Titer EC>50 (ZFH/JWJ codes): 0.750 µM; HAI Titer EC>90 (Table 22, ZFH/JWJ codes): 0.750 µM
